Assay results taken from PubChem BioAssay (NCI).
Where “and” joins values, the source holds several entries; their conditions need not be identical. Equal values may be shown once.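 Each compound was tested at five concentrations against cells in 96-well plates for 48 hours. At the GI50, growth is halved. TGI marks complete inhibition of growth.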

Experiments:
Experiment in all cases: inhibition of tumour cell growth, NCI panel, 48 h
KM12 colon = tested on: KM12 colon
SF-539 CNS = tested on: SF-539 CNS
M14 melanoma = tested on: M14 melanoma
OVCAR-8 ovarian = tested on: OVCAR-8 ovarian
SF-295 CNS = tested on: SF-295 CNS
OVCAR-4 ovarian = tested on: OVCAR-4 ovarian
HCT-15 colon = tested on: HCT-15 colon
IGROV1 ovarian = tested on: IGROV1 ovarian
SR leukemia = tested on: SR leukemia

Compound | TGI (KM12 colon) [µM] | TGI (SF-539 CNS) | TGI (M14 melanoma) | TGI (OVCAR-8 ovarian) [µM] | TGI (SF-295 CNS) [µM] | TGI (OVCAR-4 ovarian) | TGI (HCT-15 colon) [µM] | TGI (IGROV1 ovarian) | GI50 (KM12 colon) | GI50 (SF-539 CNS) | GI50 (M14 melanoma) | GI50 (SR leukemia) | TGI (SR leukemia) [µM] | GI50 (OVCAR-8 ovarian) | GI50 (SF-295 CNS) | GI50 (OVCAR-4 ovarian) | GI50 (HCT-15 colon) | GI50 (IGROV1 ovarian)
CCn1c(=O)nc2n(-c3ccc(SC)cc3)c3ccccc3nc-2c1=O | > 100 | > 100 µM | > 100 µM | > 100 | > 100 | > 100 µM | > 100 | > 100 µM |  |  |  |  |  |  |  |  |  | 
O=C(O)CCCCCNCc1cc2cc3c(cc2c2cc(OCc4ccccc4)ccc12)OCO3 | 3.19 | 3.62 µM | 3.51 µM | 3.21 | 3.61 | 12.6 µM | 5.88 | 10.1 µM | 1.63 µM | 1.9 µM | 1.9 µM | 1.7 µM | 5.3 | 1.61 µM | 1.84 µM | 3.26 µM | 2.03 µM | 2.96 µM
C=C(C)[C@@H]1CC[C@]2(C(=O)O)CC[C@]3(C)[C@H](CC[C@@H]4[C@@]5(C)CCC(N)C(C)(C)[C@@H]5CC[C@]43C)[C@@H]12 (some centres not stated) |  | 3.02 µM |  |  |  | > 100 µM |  | 6.22 µM |  | 1.59 µM |  |  |  |  |  | 2.79 µM |  | 2.41 µM
COc1cccc(NC(=O)/C(CS(=O)(=O)CCC(C(C)=O)C(C)=O)=N\NC(C)(C)C)c1 | > 100 | > 100 µM | > 100 µM | > 100 |  | > 100 µM | > 100 | > 100 µM |  |  |  |  |  |  |  |  |  | 
CCNC(=O)O/N=C1\CCC2[C@@H]3CC=C4C[C@@H](OC(=O)NCC)CC[C@]4(C)C3CC[C@]12C (some centres not stated) | 13.8 | > 100 µM | 3.23 µM | 18.2 | 11.4 | 5.19 µM | 12.5 | > 100 µM |  |  |  |  |  |  |  |  |  | 
CC(=O)OC1(C(C)=O)CC2(c3ccccc3)OC1(c1ccccc1)c1ccccc12 (configuration not stated) | > 100 | > 100 µM | > 100 µM | > 100 | > 100 |  | > 100 | 56.7 µM |  |  |  |  | > 100 |  |  |  |  | 
O=C1c2c(c3c4ccccc4n(CC4CO4)c3c3[nH]c4ccccc4c23)C(=O)N1Cc1ccccc1 (configuration not stated) | > 100 | > 100 µM | > 100 µM | > 100 | > 100 | > 100 µM | > 100 | > 100 µM |  |  |  |  | > 100 |  |  |  |  | 
COc1cc2c3c(c4cc(OC)c(OC)cc4c2cc1OC)CN1CCC[C@H]1C3 | 1.22 | 2.94 µM and 1.12 µM | 2.15 µM and 1.21 µM | > 34 |  | 1.28 µM and 0.392 µM |  | 1.45 µM and 1.42 µM | 0.0452 µM and < 0.01 µM | 0.0564 µM and 0.0157 µM | 0.0502 µM and < 0.0142 µM | 0.0667 µM and 0.0102 µM |  | 0.0381 µM and < 0.0103 µM | 0.0357 µM and 0.01 µM | 0.0419 µM and < 0.01 µM | 0.0463 µM and 0.0111 µM | 0.0433 µM and < 0.01 µM
N#Cc1c(N)oc2cc3c(C#N)c(N)oc3cc12 | > 100 | > 100 µM | > 100 µM | > 100 | > 100 | > 100 µM | > 100 | > 100 µM |  |  |  |  |  |  |  |  |  | 
Cc1ccccc1NC(=O)C(=O)C(C(=O)c1ccccc1F)C1OC(=O)c2ccccc21 (configuration not stated) | 68.2 | 27.4 µM | 30.3 µM |  |  | 60.9 µM | 79.5 |  |  |  |  |  |  |  |  |  |  | 
C(=C\c1ccc2ccccc2c1Nc1ccccc1)/c1ccccc1 | > 100 | > 100 µM | 49.6 µM | 81.1 | > 100 | 23.2 µM | > 100 | > 100 µM |  |  |  |  | 33.6 |  |  |  |  | 
O=C1N(c2ccc(Cl)cc2)C(=O)C2(SC=NN2Cc2ccccc2)N1c1ccc(Cl)cc1 (configuration not stated) | > 100 | > 100 µM | > 100 µM | > 100 |  | > 100 µM |  | > 100 µM |  |  |  |  | > 100 |  |  |  |  | 
NC1(C(=O)O)CCC(C(=O)O)CC1 (configuration not stated) | > 100 | > 100 µM | > 100 µM | > 100 | > 100 | > 100 µM |  | > 100 µM |  |  |  |  | > 100 |  |  |  |  | 
C#Cc1c(C)c(/C=C/C(C)=C\C(=O)OC)n(C)c1C | > 100 | > 100 µM | > 100 µM | > 100 | > 100 | > 100 µM | > 100 | > 100 µM |  |  |  |  |  |  |  |  |  | 
N/N=C1/C(=O)N(c2ccc(Cl)cc2)C(=O)C(=O)C1c1nc2ccccc2s1 (configuration not stated) | > 100 | > 100 µM | > 100 µM | > 100 | > 100 | > 100 µM | > 100 | > 100 µM |  |  |  |  |  |  |  |  |  | 
N#Cc1sc2nc3c(c(-c4ccccc4)c2c1N)CCCC3 | > 100 | 56.2 µM |  | > 100 | 43.6 | > 100 µM | > 100 |  |  |  |  |  | > 100 |  |  |  |  | 
COc1cc(O)c(C(=O)C2Cc3ccccc32)c(OC)c1 (configuration not stated) | > 100 | > 100 µM | > 100 µM | > 100 | > 100 | > 100 µM | > 100 | > 100 µM |  |  |  |  |  |  |  |  |  | 
